Source: patent US6881409B2, “Compositions and methods for promoting nerve regeneration” (Oregon Health and Science University, priority 1997, dated 2005)

System: SH-SY5Y human neuroblastoma cells
Assay: Neurite outgrowth (neuritic process length) of NGF-differentiated SH-SY5Y cells
Type: cell-based
Procedure: Cell cultures. SH-SY5Y human neuroblastoma cells were maintained in DMEM medium (GIBCO) supplemented with 10% fetal calf serum (SIGMA), 50 IU/mL penicillin, and […] streptomycin (GIBCO) at 37° C. in 7% CO^2. Cells were plated in six-well plates at 1×10^6 cells/well and treated with […] aphidicolin (SIGMA). At five days, cells were washed, treated with nerve growth factor (NGF) (Boehringer Mannheim, Indianapolis, Ind.) at 10 ng/mL (to induce process outgrowth) in the presence or absence of FK506 (1 and 10 nM) (Calbiochem-Novabiochem Int'l., La Jolla, Calif.) and/or geldanamycin (0.1, 1, and 10 nM) (Calbiochem-Novabiochem, La Jolla, Calif.). Media was changed at 96 hours and replaced with fresh media with the compounds (NGF plus FK506 and/or geldanamycin) for an additional 72 hours (total time, 168 hours). The top 50% of axonal lengths were selected for statistical analysis. All experiments were run in duplicate wells and repeated at least twice for reproducibility.
Light morphometry of neurite lengths. For analysis of process length, cells 20 fields per well) were randomly photographed at 72 and 168 hours. Neurite lengths were measured on photographic prints using a Houston Instrument HI-PAD digitizing tablet connected to an IBM XT computer with appropriate software (Bioquant IV, R&M Biometrics, Nashville, Tenn.); only those processes greater than two times the cell body length were measured. Data from identically treated wells were not different and were therefore combined. […] Histograms were compared using a Mann-Whitney U test, which makes no assumptions about the shape of the distribution.
Preparation of FK506 and geldanamycin. FK506 (mol. wt. 822) and geldanamycin (mol. wt. 561) were dissolved in DMEM medium.
In a first set of experiments, SH-SY5Y neuroblastoma cells were plated in 6-well plates with DMEM plus 15% FCS and differentiated with NGF (10 ng/ml). The effects of various concentrations of geldanamycin and FK506 on neurite growth, alone and in combination, were tested.

`C=CC[C@@H]1/C=C(\C)C[C@H](C)C[C@H](OC)[C@H]2O[C@@](O)(C(=O)C(=O)N3CCCC[C@H]3C(=O)O[C@H](/C(C)=C/[C@@H]3CC[C@@H](O)[C@H](OC)C3)[C@H](C)[C@@H](O)CC1=O)[C@H](C)C[C@@H]2OC` [FK506] showed a Mean Length of Top 50% of Neuritic Processes (Table 1, FK506 10 nM + NGF 10 ng/mL, 168 hours) of 77.8 µm, a Mean Length of Top 50% of Neuritic Processes (Table 2, FK506 1 nM + NGF 10 ng/mL, 168 hours) of 89.9 µm and a Mean Length of Top 50% of Neuritic Processes (Table 2, FK506 10 nM + NGF 10 ng/mL, 168 hours) of 82.7 µm.

`COC1=C2C[C@@H](C)C[C@H](OC)[C@H](O)[C@@H](C)/C=C(\C)[C@H](OC(N)=O)[C@@H](OC)/C=C\C=C(/C)C(=O)NC(=CC1=O)C2=O` [Geldanamycin, geldanamycin] showed a Mean Length of Top 50% of Neuritic Processes (Table 1, geldanamycin 1 nM + NGF 10 ng/mL, 168 hours) of 64 µm, a Mean Length of Top 50% of Neuritic Processes (Table 1, geldanamycin 10 nM + NGF 10 ng/mL, 168 hours) of 54.8 µm and a Mean Length of Top 50% of Neuritic Processes (Table 2, geldanamycin 0.1 nM + NGF 10 ng/mL, 168 hours) of 98.1 µm. The “effect on length of the processes” value (first set, geldanamycin 10 nM in the presence of NGF) was “no effect”.

For estrogen, the “effect on neurite outgrowth with FK506” value (10 nM with FK506 10 nM) was “additive effect” and the “neurite outgrowth” value (10 nM, without NGF) was “increased neurite outgrowth”.

B1: NGF: nerve growth factor (Boehringer Mannheim), used to induce process outgrowth (protein, UniProt P01139 122-241, looked up)
Beta-nerve growth factor: SSTHPVFHMGEFSVCDSVSVWVGDKTTATDIKGKEVTVLAEVNINNSVFRQYFFETKCRASNPVESGCRGIDSKHWNSYCTTTHTFVKALTTDEKQAAWRFIRIDTACVCVLSRKATRRG
B1 was tested, and the Mean Length of Top 50% of Neuritic Processes (Table 1 (first set), NGF 10 ng/mL only, 168 hours after treatment) was 54 µm, the Mean Length of Top 50% of Neuritic Processes (Table 2 (second set), NGF 10 ng/mL only, 168 hours) was 70.4 µm and the “mean length of the processes compared to untreated cells” value (first set, NGF 10 ng/mL, 168 hours) was “more than doubled”. For the same molecule, the “mean neuritic lengths compared to untreated control cells” value (second set, NGF-treated cells) was “more than double”.
